# Values joined by “and” are separate entries in the source; they are usually repeats but may differ in a detail not shown here. Identical values can stand only once.
# Columns and labels:
# [1] = tested on: bFGF-induced angiogenesis in the CAM model; experiment: bFGF-induced angiogenesis in the CAM model (TPH); type: in vivo, chick
# Procedure: Neovascularization was examined by previously described methods (see references at the end of Example 5). Ten-day-old fertilized chicken eggs were incubated at 37° C. with 55% relative humidity. In the dark with the help of candling lamp and using a hypodermic needle a small hole was punctured in the shell covering the air sac. A second hole was punctured on the wider side of the egg above an avascular area of the embryonic membrane. An artificial air sac was created below the second hole by applying gentle vacuum to the first hole using a small rubber squeeze bulb. The vacuum caused the separation of chorioallantoic membrane (CAM) from the shell. An approximately 1.0 cm^2 widow was cut in the shell over the dropped CAM with the use of a mini drill. The underlying CAM was accessed through this small window.
# Filter disks were punched using a small puncher from filter paper #1 (Whatman International, United Kingdom). Filter disks were soaked in 3 mg/ml cortisone acetate solution (95% ethanol and water) and air-dried under sterile condition. For inducing angiogenesis, sterile filter disks were saturated with bFGF (1 μg/ml) or other pro-angiogenesis factors and control disks were saturated with PBS without Calcium and Magnesium.
# Using sterile forceps one filter/CAM was placed from the window. The window was sealed with Highland brand transparent tape. After 24 hr, 10-25 µl of test agent (inhibitor) was injected intravenously or added topically into the CAM membrane of bFGF or other pro-angiogenesis factors stimulated CAMs. • Control filter disks received PBS without Calcium and Magnesium. • After 48 hr, CAM tissue directly beneath filter disk was harvested and placed in a 35-mm Petri dish. Eight-Ten eggs/treatment group was used.
# A pro-angiogenic agent (see Examples, below) was added to induce new blood vessel branches on the CAM of 10-day old embryos. Sterile disks of #1 filter paper (Whatman International, United Kingdom) were pre-treated with 3 mg/ml cortisone acetate, and air dried under sterile conditions. The disks were then suspended in PBS (Phosphate Buffered Saline) and placed on growing CAMs. Filters treated with TPH (TEMPOL-H) or TEMPOL and/or H2O2 or TPH and/or bFGF or VEGF were placed on the first day of the 3-day incubation.
# Digital Images and Microscopic analysis of CAM sections: CAM sections from Petri dish were examined using SV6 stereomicroscope (Karl Zeiss) at 50× magnification. Digital images were captured using a 3-CCD color video camera system (Toshiba America, New York, N.Y.). These images were analyzed using Image-Pro Plus software (Media Cybernetics). The number of branch points in blood vessels within the circular region superimposed to the area of a filter disk was counted for each section. After incubation at 37° C. with 55% relative humidity for 3 days, the CAM tissue directly beneath each filter disk was resected from control and treated CAM samples. Tissues were washed three times with PBS. Sections were placed in a 35-mm Petri dish (Nalge Nunc; Rochester, N.Y.) and were examined under a SV6 stereomicroscope (Karl Zeiss; Thornwood, N.Y.) at 50× magnification. Digital images of CAM sections adjacent to filters were collected using a 3-CCD color video camera system (Toshiba America; New York, N.Y.) and analyzed with the Image-Pro Plus software (Media Cybernetics; Silver Spring, Md.). The number of vessel branch points contained in a circular region equal to the area of a filter disk was counted for each section. Percent inhibition data are expressed as the quotient of the experimental value minus the negative control value divided by the difference between the positive control value and the negative control value. One image was counted in each CAM preparation, and findings from eight CAM preparations were analyzed for each treatment condition. In addition, each experiment was performed three times. […]
# [2] = Single-dose 10-minute intravenous infusion toxicokinetics in Sprague-Dawley rats; type: in vivo
# Procedure: Blood for toxicokinetic evaluations was collected at pre-determined time points during and after the infusion.
# All pharmacokinetic analyses were performed using Kinetica®, version 4.2 (Innaphase, Philadelphia, Pa.).
# Cmax is the observed maximum plasma concentration
# Tmax is the time Cmax is reached
# T1/2 is the elimination half-life
# The plasma concentrations were rounded to the nearest tenth of a ng/mL before the calculations. […] Nominal time points were used for all calculations.
# [3] = In vitro stability of Compound 1 in rabbit plasma; type: in vitro ADME; details: formed from OT-551 (Compound 1, 1000 ng/mL)
# Procedure: (§1) The active metabolite of Compound 1 (Cyclopropanecarboxylic acid 1-hydroxy-2,2,6,6-tetramethyl-piperidin-4-yl ester) is TPH. The objective of this analysis was to determine the in vitro half-life of Compound 1 in rat, rabbit, dog, and human plasma under standardized incubation conditions.
# (§2) Compound 1 was incubated with pooled rat, rabbit, dog, and human plasma for various times under standardized incubation conditions. Pre-labeled tubes containing pooled plasma from rats, rabbits, dogs, and humans were pre-incubated in a shaking 37° C. water bath. A Compound 1 solution was added to the tubes at a final concentration of 1000 ng/mL. Time zero samples (n=5) were immediately removed and transferred into tubes containing a stabilizer solution (DTPA, acetylcysteine and ascorbic acid), the LC/MS/MS assay internal standard and methanol. […] The tubes were vortexed, placed on ice, followed by centrifugation. One hundred-μL aliquots of the supernatant were transferred into HPLC sample vials. Additional tubes (n=5 at each time point) were incubated for 5, 10, 20, 30, 60, 120, and 240 minutes at 37° C. and thereafter processed. The amount of Compound 1 and TPH in each incubated sample was quantified using validated LC/MS/MS assays.
# [4] = tested on: mouse V79 cells; details: Mitchell et al., 2000; cited from earlier work
# [5] = In vitro stability of Compound 1 in human plasma; type: in vitro ADME; details: formed from OT-551 (Compound 1, 1000 ng/mL)
# Procedure: as §1, §2
# [6] = after Compound 1 10 mg/kg iv infusion
# [7] = after Compound 1 30 mg/kg iv infusion
# [8] = after Compound 1 100 mg/kg iv infusion
compound,measurement,setting,value
CC1(C)CC(O)CC(C)(C)N1O [TPH],inhibition of bFGF-induced angiogenesis,[1]; 100-400 μg,dose-dependent inhibition
same,Mean % Inhibition ± SD,[1]; bFGF (1 μg/ml) + TPH 100 μg,20 ± 12%
same,Mean Branch points ± SEM,[1]; bFGF (1 μg/ml) + TPH 100 μg,172 ± 12.4
same,Mean % Inhibition ± SD,[1]; bFGF (1 μg/ml) + TPH 200 μg,45.3 ± 7.5 %
same,Mean Branch points ± SEM,[1]; bFGF (1 μg/ml) + TPH 200 μg,147.2 ± 7.5
same,Mean % Inhibition ± SD,[1]; bFGF (1 μg/ml) + TPH 400 μg,58.7 ± 10.9 %
same,Mean Branch points ± SEM,[1]; bFGF (1 μg/ml) + TPH 400 μg,133.8 ± 10.8
same,Mean % Inhibition ± SD,[1]; bFGF (1 μg/ml) + TPH 800 μg,28.1 ± 6.8 %
same,Mean Branch points ± SEM,[1]; bFGF (1 μg/ml) + TPH 800 μg,164.2 ± 6.7
same,plasma levels of TPH at 4 hr post infusion,[2]; after Compound 1 10 mg/kg dose,still quantifiable
same,AUC(0-4.167 hr) of TPH,[2]; [6],1694.8 ng·h/mL
same,Cmax of TPH,[2]; [6],2481.7 ng/mL
same,Tmax of TPH,[2]; [6],10 min
same,T½ of TPH (elimination half-life),[2]; [6],24 min
same,Plasma concentration of TPH,"[2]; after Compound 1 10 mg/kg iv infusion, 0.167 hr",2481.7 ± 325.8 ng/mL
same,Plasma concentration of TPH,"[2]; after Compound 1 10 mg/kg iv infusion, 1.167 hr",204.7 ± 85.6 ng/mL
same,Plasma concentration of TPH,"[2]; after Compound 1 10 mg/kg iv infusion, 2.167 hr",25.2 ± 24.0 ng/mL
same,Plasma concentration of TPH,"[2]; after Compound 1 10 mg/kg iv infusion, 4.167 hr",4.2 ± 10.3 ng/mL
same,AUC of TPH,"[2]; after Compound 1 10 mg/kg iv infusion, to time infinity",1697.5 ng·h/mL
same,Cmax of TPH,[2]; [7],8337.7 ng/mL
same,Tmax of TPH,[2]; [7],10 min
same,Plasma concentration of TPH,"[2]; after Compound 1 30 mg/kg iv infusion, 0.167 hr",8337.7 ± 2099.5 ng/mL
same,Plasma concentration of TPH,"[2]; after Compound 1 30 mg/kg iv infusion, 4.167 hr",53.8 ± 29.7 ng/mL
same,Cmax of TPH,[2]; [8],29020.8 ng/mL
same,Tmax of TPH,[2]; [8],10 min
same,Plasma concentration of TPH,"[2]; after Compound 1 100 mg/kg iv infusion, 0.167 hr",29020.8 ± 11713.7 ng/mL
same,Plasma concentration of TPH,"[2]; after Compound 1 100 mg/kg iv infusion, 4.167 hr",160.0 ± 97.5 ng/mL
same,Tmax of TPH,[2]; after Compound 1 200 mg/kg iv infusion,10 min
same,Plasma concentration of TPH,"[2]; after Compound 1 200 mg/kg iv infusion, 0.167 hr",60802.2 ± 8922.5 ng/mL
same,Plasma concentration of TPH,"[2]; after Compound 1 200 mg/kg iv infusion, 4.167 hr",524.5 ± 237.0 ng/mL
same,Cmax of TPH,"[2]; after Compound 1 200 mg/kg iv infusion, 200 mg/kg",60802.1 ng/mL and 60802.2 ng/mL
same,levels of TPH at four hours after terminating the infusion relative to concentrations immediately after terminating the infusions,"[2]; after Compound 1 30, 100 and 200 mg/kg",less than 1%
same,Concentration of TPH in plasma,[3]; incubation 0 min,270.55 ± 35.45 ng/mL
same,Concentration of TPH in plasma,[3]; incubation 5 min,587.17 ± 21.99 ng/mL
same,Concentration of TPH in plasma,[3]; incubation 10 min,604.21 ± 21.99 ng/mL
same,Concentration of TPH in plasma,[3]; incubation 20 min,590.06 ± 40.97 ng/mL
same,Concentration of TPH in plasma,[3]; incubation 30 min,533.01 ± 117.40 ng/mL
same,Concentration of TPH in plasma,[3]; incubation 60 min,569.19 ± 32.96 ng/mL
same,Concentration of TPH in plasma,[3]; incubation 120 min,525.63 ± 10.31 ng/mL
same,Concentration of TPH in plasma,[3]; incubation 240 min,477.54 ± 40.95 ng/mL
same,radioprotection of mouse V79 cells,[4],did not provide any radioprotection
same,Concentration of TPH in plasma,[5]; incubation 0 min,48.76 ± 2.84 ng/mL
same,Concentration of TPH in plasma,[5]; incubation 5 min,186.71 ± 4.58 ng/mL
same,Concentration of TPH in plasma,[5]; incubation 10 min,241.99 ± 8.05 ng/mL
same,Concentration of TPH in plasma,[5]; incubation 20 min,310.10 ± 8.54 ng/mL
same,Concentration of TPH in plasma,[5]; incubation 30 min,365.53 ± 14.44 ng/mL
same,Concentration of TPH in plasma,[5]; incubation 60 min,449.85 ± 9.73 ng/mL
same,Concentration of TPH in plasma,[5]; incubation 120 min,519.12 ± 19.52 ng/mL
same,Concentration of TPH in plasma,[5]; incubation 240 min,501.39 ± 11.33 ng/mL
